Patent publication US20250000877A1, “COMPOSITION CONTAINING TAURODEOXYCHOLIC ACID OR PHARMACEUTICALLY ACCEPTABLE SALT THEREOF AS ACTIVE INGREDIENT FOR PREVENTING OR TREATING VIRAL INFECTIOUS DISEASES” (SHAPERON INC., priority 2021, published 2025)
Like-named read-outs stand apart in the source and are kept apart here.

Tests used:
[1] = tested on: influenza virus CA04 (human H1N1); experiment: Lung lesions / histopathological scoring in influenza virus-infected animal model; type: in vivo, mice; settings: for pathological scoring of lung lesions: score 0-4 per Table 2
Protocol: Specifically, female BLAB/C mice aged 7 weeks were purchased and allowed to acclimate for one week before the experiments commenced. The experimental animals were housed under conditions of 22±2° C. temperature, 55±5% relative humidity, and a 12-hour light-dark cycle. Water was provided ad libitum, and sterilized feed was freely accessible.
Next, as shown in the schematic diagram of FIG. 1, influenza virus CA04 (human H1N1) was intranasally inoculated at a concentration of 2LD50 (30 μl/mouse), and the drug was administered by dividing into four groups as shown in [Table 1] below. The positive control group was administered dexamethasone, an anti-inflammatory drug, as a drug, and the experimental group was administered HY209 as a low dose (1 mpk) or a high dose (4 mpk) as a drug. The drug was administered intraperitoneally at a dose of 100 μl/mouse on the third day after virus infection. In addition, lung tissues were separated and stored after autopsy of each group on the 7th day (7 dpi), 10th day (10 dpi), and 11th day (11 dpi) of virus infection.
Specifically, each of the test groups of Example 1 was autopsied on the 7th day (7 dpi), 10th day (10 dpi), and 11th day (11 dpi) of viral infection, and then the lungs were separated. The separated lung lesions were visually confirmed (FIGS. 3a to 3c), and lung lesions were scored according to the pathological scoring criteria of Table 2 below, and then graphed (FIGS. 4a and 4b).

[2] = tested on: IL-1β; type: in vivo, mice
[3] = 7 dpi, 1 mpk intraperitoneally from DPI 3, virus infection group G1 2.8±0.84
[4] = 11 dpi, 1 mpk intraperitoneally from DPI 3, virus infection group G1 4±0

| SMILES | pathological scoring of lung lesions [1, 3] | reduction in pathological scores compared to the virus infection group (G1) ([1]; 7 dpi, 4 mpk (G4), P=0.046) | pathological scoring of lung lesions ([1]; 7 dpi, 4 mpk intraperitoneally from DPI 3, virus infection group G1 2.8±0.84) | reduction in pathological scores compared to the virus infection group (G1) ([1]; 11 dpi, 1 mpk (G2 P=0.002, G3 P=0.013)) | pathological scoring of lung lesions [1, 4] | reduction in pathological scores compared to the virus infection group (G1) ([1]; 11 dpi, 4 mpk (G4), P=0.0005) | pathological scoring of lung lesions ([1]; 11 dpi, 4 mpk intraperitoneally from DPI 3, virus infection group G1 4±0) | production of inflammatory cells in the lungs ([1]; low (1 mpk) or high (4 mpk) dose groups compared to the virus infection group, summary statement) | IL-1β levels ([2]; […], serum samples, HY209 1 mpk (G3) vs G1) | production of inflammatory cytokine IL-1β in the lungs ([2]; mouse, in vivo) | IL-1β levels in lung tissue samples ([2]; mouse, in vivo, 1 mg/kg) | IL-1β levels in lung tissue samples ([2]; mouse, in vivo, 4 mg/kg) |
| --- | --- | --- | --- | --- | --- | --- | --- | --- | --- | --- | --- | --- |
| C[C@H](CCC(=O)NCCS(=O)(=O)O)[C@H]1CC[C@H]2[C@@H]3CC[C@@H]4C[C@H](O)CC[C@]4(C)[C@H]3C[C@H](O)[C@]12C [HY209, Sodium taurodeoxycholate] | 2.6±0.55 | statistically significant reduction | 1.8±0.45 | statistically significant reduction | 2.8±0.84 | statistically significant reduction | 2.29±0.76 | reduced | significant decrease | reduced | significant decrease | significant decrease |
| C[C@@H]1C[C@H]2[C@@H]3CCC4=CC(=O)C=C[C@]4(C)[C@@]3(F)[C@@H](O)C[C@]2(C)[C@@]1(O)C(=O)CO [dexamethasone, reference compound] | 1.8±0.45 |  |  |  | 2.5±0.71 |  |  |  |  |  |  |  |
